“Also recorded” adds a separate entry of the source.
Legend:
[1] = test system: OGD/R-induced primary mouse cardiomyocytes; assay: OGD/R-induced injury, MTT viability, primary cardiomyocytes; assay type: cell-based; conditions: 10 and 30 μM, OGD 3 h, reperfusion 18 h
Description: The heart was removed from the neonatal C57BL/6 mice and cut into 1 mm^3 pieces in ice […] buffer. The tissues were digested with the mixture of 0.125% trypsin (Gibco, 15090-046) and 0.1% type II collagenase (Gibco, 17101-015) 6 min at 37 °C for three times until the tissues were completely digested. The cells were harvested and seeded in a dish. After 90 min of incubation, the cell culture medium was collected and centrifuged. The centrifuged cardiomyocytes were harvested, seeded on 0.1 % gelatin-coated culture plates with DMEM containing 10% FBS and […] Brdu, and incubated in a 37°C incubator.
Cell viability was determined by MTT assays. PBA was prepared to a stock solution dissolved in dimethyl sulfoxide (DMSO). RAW264.7, H9c2 cells, primary mouse cardiomyocytes were treated with different doses of PBA, and DMSO only as control for 48 h for the toxicity. In addition, H9c2 cells or primary mouse cardiomyocytes were treated with the indicated doses of PBA, diazoxide as positive control, DMSO only as control, then cultured with or without OGD/R treatment. At the end of the experiments, MTT was added into each well at the concentration of 0.5 mg/ml, and incubated at 37 °C for 4 h. […] And the solution was measured at the absorbance of 490 nm by a spectrophotometer (Thermo Fisher Scientific, MA, USA). […]

[2] = biological target: T1, Keap1 C77S/C434S (Homo sapiens, UniProt Q14145, C434S/C77S); assay: ITC titration of PBA with Keap1-C77S/C434S; assay type: binding
T1 construct: His (N); made in house; host or cells: E. coli BL21 (DE3)
T1 sequence (Q14145 whole entry C77S/C434S): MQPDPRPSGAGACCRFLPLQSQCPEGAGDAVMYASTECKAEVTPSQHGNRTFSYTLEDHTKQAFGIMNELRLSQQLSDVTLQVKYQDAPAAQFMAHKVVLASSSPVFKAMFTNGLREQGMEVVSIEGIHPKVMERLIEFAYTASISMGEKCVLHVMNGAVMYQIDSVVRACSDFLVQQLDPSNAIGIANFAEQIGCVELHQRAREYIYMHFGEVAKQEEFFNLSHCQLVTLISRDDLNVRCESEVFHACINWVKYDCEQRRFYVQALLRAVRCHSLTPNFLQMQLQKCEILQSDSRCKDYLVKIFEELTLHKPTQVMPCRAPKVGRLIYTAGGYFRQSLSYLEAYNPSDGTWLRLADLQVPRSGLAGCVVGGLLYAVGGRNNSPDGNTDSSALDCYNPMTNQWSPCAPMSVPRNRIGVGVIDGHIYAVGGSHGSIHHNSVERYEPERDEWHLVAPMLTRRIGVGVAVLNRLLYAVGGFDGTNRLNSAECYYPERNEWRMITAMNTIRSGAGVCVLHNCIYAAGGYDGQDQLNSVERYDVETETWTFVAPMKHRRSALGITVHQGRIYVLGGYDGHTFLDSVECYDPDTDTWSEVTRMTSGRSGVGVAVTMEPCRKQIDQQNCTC
Description: The Keap1 was amplified by PCR using a human cDNA library, and was subcloned into the vector pET28-TEV, which contained one tobacco etch virus (TEV) protease cleavage site at the upstream multiple cloning site. The protein was expressed in E. coli BL21 (DE3) cells and incubated at 37 °C until the OD600 value reached 0.6, using 0.2 mM isopropyl β-D-1-thiogalactopyranoside (IPTG) overnight induction at 18 °C. The cells were isolated by centrifugation, resuspended in ice-cold lysis buffer and lysed by cryogenic overpressure cell breaker at 1,200 psi. The lysates were centrifuged for 60 min at 14,000 rpm to obtain the supernatant. Gravity flow purification of Keap1 protein was obtained at room temperature using 1 mL of Ni-NTA and eluted in buffer containing 250 mM imidazole, followed by 1 mL of HiTrap QHP for the second step purification. The final protein was purified and validated by Superdex 200 10/300GL resin.
The mutant plasmid DNA was obtained by PCR. The PCR products were cleaved by DpnI restriction enzymes. The restriction endonuclease-cleaved mixture was subsequently transformed into E. coli DH5α. Colonies were evaluated by colony PCR and sequenced. The mutant plasmid was transformed into E. coli BL21 (DE3) after successful sequencing. The steps for expression and purification of all recombinants were described above.
Isothermal calorimetry (ITC) titration experiments were performed at 25 °C. WT Keap1, Keap1 mutants and PBA were dissolved in binding buffer (40 mM Tris-HCl pH 8.0, 250 mM NaCl). In a typical experiment, 60 μL of PBA (1 mM) was injected 19 times at 2-min intervals from a stirring syringe into the sample cell containing 300 μL of WT protein or mutants (30 μM). The first injection was 0.4 μL of PBA, and the subsequent 18 injections were 2 μL each time. The site-binding models were determined by using MicroCal Origin software.

[3] = test system: T2, interaction between Keap1 and Nrf2; assay: Co-IP of Keap1 and Nrf2 in 293T cells; assay type: cell-based, human
T2 construct: expressed in transfected cells; host or cells: 293T
Description: Figure 6 PBA suppresses Keap1-mediated ubiquitination of Nrf2 by disrupting the interaction between Cul3 and Keap1. (A and B) PBA suppressed Nrf2 ubiquitination in a Keap1-Cys77 and C434-dependent manner. First, 293T cells were transfected with WT-Keap1 or C77S and C434S-Keap1, Myc-Nrf2, and Ub plasmids for 24 h and treated with 30 μM PBA. The cell lysates were immunoprecipitated using anti-Myc beads, and the ubiquitination level was evaluated using the anti-Ub antibody. (C and D) PBA induced the dissociation of the Nrf2-Keap1 complex. Then, 293T cells were cotransfected with WT-Keap1 and Flag-Nrf2 plasmids for 24 h and treated with 30 μM PBA for 12 h. The cell lysates were immunoprecipitated with the anti-Flag antibody, and the level of Nrf2 was assessed using the anti-Nrf2 antibody. (E and F) PBA disrupted the interaction between Cul3 and Keap1. The 293T cells were transfected with the WT-Keap1 or C77S-C434S-Keap1 plasmids for 24 h and treated with 30 μM PBA for 12 h. The cell lysates were immunoprecipitated with the anti-Flag antibody, and the level of Cul3 was measured using the anti-Cul3 antibody. #p < 0.05, ##p < 0.01, ###p < 0.001, the control vs DMSO; *p < 0.05,**p < 0.01, ***p < 0.001, PBA or tBHQ vs DMSO. […] Primary mouse cardiomyocytes were transfected with mouse WT-Keap1 or C77S and C434S-Keap1 mutant vectors. After 24 h, the cells were treated with the indicated doses of PBA and subjected to OGD conditions as described in the Method section for 3 h and under normal conditions for another 18 h. Cell viability was measured by MTT assays. #p < 0.05, ###p < 0.001, the control vs OGD/R; **p < 0.01, ***p < 0.001, OGD/R+PBA vs OGD/R.
To investigate the effect of PBA on the interaction of Keap1 and Nrf2, we transfected 293T cells with Flag-Keap1 and Myc-Nrf2 plasmids, and treated them with 30 μM PBA for 24 h. The protein expression of Nrf2 was measured by western blotting analysis followed by immunoprecipitation with Flag beads.

[4] = ITC, 25 ℃, Keap1 C77S/C434S double mutant

- Kd [2, 4]: 38.6 µM
- T△S [2, 4]: 1.11 ± 0.00 kcal/mol
- △G [2, 4]: -6.03 ± 0.00 kcal/mol
- △H [2, 4]: -4.92 ± 0.637 kcal/mol
- Kd weaker than that of the WT ([2]; double mutant Cys77S/Cys434S vs WT Keap1): ~ 15 fold
Structure (SMILES): C=C(COC(=O)C=Cc1ccc(O)c(O)c1)C(O)COC1OC(CO)C(O)C(O)C1O (centres unmarked) [PBA, pubescenoside A]
- protection against OGD/R induced injury (cell viability, MTT) [1]: protected
- Keap1-Nrf2 complex with mutant Keap1 (Co-IP) ([3]; Cys77S and Cys434S-Keap1 mutant vectors): unable to block
- interaction between Keap1 and Nrf2 (Co-IP) ([3]; WT-Keap1, 30 μM PBA): significantly disturbed; also recorded: disrupted

From article PMC7738871, “Covalent modification of Keap1 at Cys77 and Cys434 by pubescenoside a suppresses oxidative stress-induced NLRP3 inflammasome activation in myocardial ischemia-reperfusion injury” (Theranostics, 2021)
